Consider 21 compounds from US20130178472A1, “ARYLSULFONAMIDE PYRIDINE-PYRIDINONE DERIVATIVES, PREPARATION OF SAME, AND THERAPEUTIC USE THEREOF” (SANOFI, priority 2010, published 2013).

Where a name gives a salt, the structure may show the parent alone.

Broadly, the melting point is the temperature of the solid-liquid transition.

T1 sequence (P09619 with tags, fused parts or gaps): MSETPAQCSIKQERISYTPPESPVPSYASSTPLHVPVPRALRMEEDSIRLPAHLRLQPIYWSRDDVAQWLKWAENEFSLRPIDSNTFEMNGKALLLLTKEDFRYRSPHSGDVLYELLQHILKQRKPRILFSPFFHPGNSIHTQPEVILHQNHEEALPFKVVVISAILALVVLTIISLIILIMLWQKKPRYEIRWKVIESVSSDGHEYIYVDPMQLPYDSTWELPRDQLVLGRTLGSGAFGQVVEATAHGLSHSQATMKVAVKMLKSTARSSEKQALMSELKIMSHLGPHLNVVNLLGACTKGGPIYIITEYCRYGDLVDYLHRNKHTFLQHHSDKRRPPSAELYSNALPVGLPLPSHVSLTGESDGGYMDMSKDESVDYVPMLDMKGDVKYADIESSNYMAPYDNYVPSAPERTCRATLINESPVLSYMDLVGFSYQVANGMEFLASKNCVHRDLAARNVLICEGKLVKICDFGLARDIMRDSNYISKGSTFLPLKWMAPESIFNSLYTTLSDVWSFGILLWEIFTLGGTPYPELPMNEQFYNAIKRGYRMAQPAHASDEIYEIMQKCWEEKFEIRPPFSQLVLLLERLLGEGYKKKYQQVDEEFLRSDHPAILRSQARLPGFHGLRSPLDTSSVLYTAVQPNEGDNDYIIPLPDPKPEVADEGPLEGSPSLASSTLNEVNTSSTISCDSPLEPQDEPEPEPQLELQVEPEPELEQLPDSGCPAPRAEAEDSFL

The first data set concerns the target T1, fusion protein Tel/PDGF-R beta (BaF3 Tel/PDGF cells) (Homo sapiens, UniProt P09619).
T1 construct: the transmembrane and intracellular part of the PDGF-R beta receptor; N-terminal part of transcription factor Tel (ETV6, own knowledge: UniProt P41212), containing the oligomerization domain; expressed in transfected cells; host or cells: murine hematopoietic cell line BaF/3 (BaF3 Tel/PDGF); the other entry of the earlier key: ETV6 (P41212, Transcription factor ETV6)
As to the kind of experiment: Inhibition of PDGF beta receptor tyrosine kinase activity: proliferation of BaF3 Tel/PDGF cells. The data set is classed as cell-based, murine. To be noted: 72 h incubation, viable cells by cellular ATP (CellTiter-Glo); read-out: IC50, concentration which inhibits 50% of the proliferation of the Baf3 tel/PDGF cells. An excerpt: The inhibitory activity on the PDGF receptor kinases is given by the concentration which inhibits 50% of the proliferation activity of Baf3 tel/PDGF cells respectively. The inhibitory activity on p70S6 kinase is given by the concentration which inhibits 50% of the phosphorylation of the peptide substrate derived from the S6 ribosomal protein (AKRRRLSSLRA, Upstate).
Measurement of the inhibition of the PDGF beta receptor (PDGF-Rβ) tyrosine kinase activity (Baf-3 tel/PDGFRβ):
This test consists in evaluating the effects of the compounds on the PDGF beta receptor tyrosine kinase activity.
The inhibitory effect of the compounds according to the invention toward the PDGF-R receptor tyrosine kinase activity was evaluated on the hematopoietic murine cell line BaF/3 transfected with a plasmid encoding the fusion protein Tel/PDGF-R beta. This fusion protein is found in chronic myelomonocytic myeloid leukemias (CMML). It comprises the N-terminal part of the transcription factor Tel and the transmembrane and intracellular part of the PDGF-R beta receptor. This fusion protein is present in dimerized form (presence of an oligomerization domain in the N-terminal part of Tel) and therefore leads to the constitutive activity of the PDGF-R beta kinase domain. This BaF3 Tel/PDGF line has been described in the literature several times and in particular in detail in the article by CARROLL, M. et al., PNAS, 1996, 93, 14845-14850, CARROLL, M. et al., Blood 2002, 99, 14845-14850.
The BaF3 Tel/PDGF cells are washed with phosphate buffer and inoculated in 96-well plates, at the density of 5×10^4 cells/ml ([…]), in RPMI 1640 containing 10% FCS, in the presence or absence of the compounds to be tested. After 72 h of incubation, the viable cells are quantified by measuring the cellular ATP using the kit CellTiter-Glo®(Promega, Cat G7571). The cells are treated according to the instructions given by the kit supplier and the luminescence is measured with the aid of a Luminoskan (Ascent, Labsystem) with the following parameters: measurement: single; integration time: 1000 ms, lag time: 5 s.
It is thus apparent that the compounds according to the invention have an inhibitory activity on the PDGF-R beta tyrosine kinase activity. This activity is given by the concentration which inhibits 50% of the proliferation of the Baf3 tel/PDGF cells (IC50).
(ATP-based viability assays read luminescence as a measure of living cells.)
Turning to `CCn1c(N)c(C(=O)NC)c(=O)c2ccc(-c3ccc(NS(=O)(=O)c4cccc(F)c4)c(F)c3)nc21` [compound No. 2, 2-amino-1-ethyl-7-(3-fluoro-4-{[(3-fluorophenyl)sulfonyl]amino}phenyl)-N-methyl-4-oxo-1,4-dihydro-1,8-naphthyridine-3-carboxamide], the IC50 worked out at 36 nM.
`CCn1c(N)c(C(=O)NC)c(=O)c2ccc(-c3ccc(NS(=O)(=O)c4ccc(F)cc4)c(F)c3)nc21` [compound No. 24, 2-amino-1-ethyl-7-(3-fluoro-4-{[(4-fluorophenyl)sulfonyl]amino}phenyl)-N-methyl-4-oxo-1,4-dihydro-1,8-naphthyridine-3-carboxamide]: the IC50 is 24 nM.

Test system in the next data set: not given
Assay: not given
Settings: not given
`CCn1c(N)c(C(=O)NC)c(=O)c2ccc(-c3ccc(NS(=O)(=O)c4ccc(N5CCOCC5)nc4)c(F)c3)nc21` (as salt: HCl) [compound No. 26, 2-amino-1-ethyl-7-[3-fluoro-4-({[6-(morpholin-4-yl)pyridin-3-yl]sulfonyl}amino)phenyl]-N-methyl-4-oxo-1,4-dihydro-1,8-naphthyridine-3-carboxamide] displayed a melting point of over 260 °C.
With `CCn1c(N)c(C(=O)NC)c(=O)c2ccc(-c3ccc(NS(=O)(=O)c4cccc(Cl)c4Cl)c(C)c3)nc21` [compound No. 15, 2-amino-7-(4-{[(2,3-dichlorophenyl)sulfonyl]amino}-3-methylphenyl)-1-ethyl-N-methyl-4-oxo-1,4-dihydro-1,8-naphthyridine-3-carboxamide], the melting point is 299 °C.
The same measure, in the same setting: in the case of `CCCCS(=O)(=O)Nc1ccc(-c2ccc3c(=O)c(C(=O)NC)c(N)n(CC)c3n2)cc1F` [compound No. 7, 2-amino-7-{4-[(butylsulfonyl)amino]-3-fluorophenyl}-1-ethyl-N-methyl-4-oxo-1,4-dihydro-1,8-naphthyridine-3-carboxamide] it was 165 to 167 °C; in that of `CCn1c(N)c(C(=O)NC)c(=O)c2ccc(-c3ccc(NS(=O)(=O)c4ccc(F)c(F)c4)c(F)c3)nc21` [compound No. 23, 2-amino-7-(4-{[(3,4-difluorophenyl)sulfonyl]amino}-3-fluorophenyl)-1-ethyl-N-methyl-4-oxo-1,4-dihydro-1,8-naphthyridine-3-carboxamide], over 260 °C.
Same read-out and setting: the value for `CCn1c(N)c(C(=O)NC)c(=O)c2ccc(-c3ccc(NS(=O)(=O)c4cccc(F)c4)c(F)c3)nc21` [compound No. 2, 2-amino-1-ethyl-7-(3-fluoro-4-{[(3-fluorophenyl)sulfonyl]amino}phenyl)-N-methyl-4-oxo-1,4-dihydro-1,8-naphthyridine-3-carboxamide] was 256 °C.
Compound `CCn1c(N)c(C(=O)NC)c(=O)c2ccc(-c3ccc(NS(=O)(=O)c4ccccc4Cl)cc3)nc21` [compound No. 19, 2-amino-7-(4-{[(2-chlorophenyl)sulfonyl]amino}phenyl)-1-ethyl-N-methyl-4-oxo-1,4-dihydro-1,8-naphthyridine-3-carboxamide] returned a melting point of over 260 °C.
The same measure, in the same setting: in the case of `CCn1c(N)c(C(=O)NC)c(=O)c2ccc(-c3ccc(NS(=O)(=O)c4cc(Cl)ccc4Cl)cc3Cl)nc21` [compound No. 12, 2-amino-7-(2-chloro-4-{[(2,5-dichlorophenyl)sulfonyl]amino}phenyl)-1-ethyl-N-methyl-4-oxo-1,4-dihydro-1,8-naphthyridine-3-carboxamide] it was 323 °C.
As to `CCn1c(N)c(C(=O)NC)c(=O)c2ccc(-c3ccc(NS(=O)(=O)c4ccc(Cl)cc4)c(F)c3)nc21` [compound No. 21, 2-amino-7-(4-{[(4-chlorophenyl)sulfonyl]amino}-3-fluorophenyl)-1-ethyl-N-methyl-4-oxo-1,4-dihydro-1,8-naphthyridine-3-carboxamide], the melting point was over 260 °C.
Same read-out and setting: in the case of `CCn1c(N)c(C(=O)NC)c(=O)c2ccc(-c3ccc(NS(C)(=O)=O)cc3)nc21` [compound No. 16, 2-amino-1-ethyl-N-methyl-7-{4-[(methylsulfonyl)amino]phenyl}-4-oxo-1,4-dihydro-1,8-naphthyridine-3-carboxamide] it was over 300 °C; in that of `C=CS(=O)(=O)Nc1ccc(-c2ccc3c(=O)c(C(=O)NC)c(N)n(CC)c3n2)cc1F` [compound No. 3, 2-amino-7-{4-[(ethenylsulfonyl)amino]-3-fluorophenyl}-1-ethyl-N-methyl-4-oxo-1,4-dihydro-1,8-naphthyridine-3-carboxamide], over 260 °C.
The same measure, in the same setting: in the case of `CCn1c(N)c(C(=O)NC)c(=O)c2ccc(-c3ccc(NS(=O)(=O)Cc4cccnc4)c(F)c3)nc21` (as salt: HCl) [compound No. 1, 2-amino-1-ethyl-7-(3-fluoro-4-{[(pyridin-3-ylmethyl)sulfonyl]amino}phenyl)-N-methyl-4-oxo-1,4-dihydro-1,8-naphthyridine-3-carboxamide] it was 220 to 223 °C.
On the same count and under the same terms, the value for `CCn1c(N)c(C(=O)NC)c(=O)c2ccc(-c3ccc(NS(=O)(=O)c4ccc(F)cc4)c(F)c3)nc21` [compound No. 24, 2-amino-1-ethyl-7-(3-fluoro-4-{[(4-fluorophenyl)sulfonyl]amino}phenyl)-N-methyl-4-oxo-1,4-dihydro-1,8-naphthyridine-3-carboxamide] was over 260 °C; that for `CCn1c(N)c(C(=O)NC)c(=O)c2ccc(-c3ccc(NS(=O)(=O)c4cccc(OC)c4)c(F)c3)nc21` [compound No. 25, 2-amino-1-ethyl-7-(3-fluoro-4-{[(3-methoxyphenyl)sulfonyl]amino}phenyl)-N-methyl-4-oxo-1,4-dihydro-1,8-naphthyridine-3-carboxamide] was over 260 °C.
As to `CCn1c(N)c(C(=O)NC)c(=O)c2ccc(-c3ccc(NS(=O)(=O)c4cccc(Cl)c4Cl)cc3)nc21` [compound No. 17, 2-amino-7-(4-{[(2,3-dichlorophenyl)sulfonyl]amino}phenyl)-1-ethyl-N-methyl-4-oxo-1,4-dihydro-1,8-naphthyridine-3-carboxamide], the melting point was found to be 210 °C.
The compound `CCn1c(N)c(C(=O)NC)c(=O)c2ccc(-c3ccc(NS(=O)(=O)c4c(Cl)cccc4Cl)c(F)c3)nc21` [compound No. 11, 2-amino-7-(4-{[(2,6-dichlorophenyl)sulfonyl]amino}-3-fluorophenyl)-1-ethyl-N-methyl-4-oxo-1,4-dihydro-1,8-naphthyridine-3-carboxamide] yielded a melting point of 321 °C.
`CCn1c(N)c(C(=O)NC)c(=O)c2ccc(-c3ccc(NS(=O)(=O)c4cccc(Cl)c4)c(F)c3)nc21` [compound No. 22, 2-amino-7-(4-{[(3-chlorophenyl)sulfonyl]amino}-3-fluorophenyl)-1-ethyl-N-methyl-4-oxo-1,4-dihydro-1,8-naphthyridine-3-carboxamide] showed a melting point of over 260 °C.
Still for that read-out and setting: the value for `CCn1c(N)c(C(=O)NC)c(=O)c2ccc(-c3ccc(NS(=O)(=O)CCN(C)C)c(F)c3)nc21` (as salt: HCl) [compound No. 4, 2-amino-7-[4-({[2-(dimethylamino)ethyl]sulfonyl}amino)-3-fluorophenyl]-1-ethyl-N-methyl-4-oxo-1,4-dihydro-1,8-naphthyridine-3-carboxamide] was 268 to 270 °C.
Turning to `CCn1c(N)c(C(=O)NC)c(=O)c2ccc(-c3ccc(NS(=O)(=O)c4cccc(Cl)c4Cl)cc3Cl)nc21` [compound No. 13, 2-amino-7-(2-chloro-4-{[(2,3-dichlorophenyl)sulfonyl]amino}phenyl)-1-ethyl-N-methyl-4-oxo-1,4-dihydro-1,8-naphthyridine-3-carboxamide], the melting point was determined as 239 °C.
In turn, `CCn1c(N)c(C(=O)NC)c(=O)c2ccc(-c3ccc(NS(=O)(=O)Cc4cccc(N)c4)c(F)c3)nc21` (as salt: HCl) [compound No. 5, 2-amino-7-(4-{[(3-aminobenzyl)sulfonyl]amino}-3-fluorophenyl)-1-ethyl-N-methyl-4-oxo-1,4-dihydro-1,8-naphthyridine-3-carboxamide] returned a melting point of over 260 °C.
The same measure, in the same setting: the value for `CCn1c(N)c(C(=O)NC)c(=O)c2ccc(-c3ccc(NS(=O)(=O)Cc4ccccn4)c(F)c3)nc21` (as salt: HCl) [compound No. 27, 2-amino-1-ethyl-7-(3-fluoro-4-{[(pyridin-2-ylmethyl)sulfonyl]amino}phenyl)-N-methyl-4-oxo-1,4-dihydro-1,8-naphthyridine-3-carboxamide] was 260 °C; that for `CCn1c(N)c(C(=O)NC)c(=O)c2ccc(-c3ccc(NS(=O)(=O)c4cn(C)cn4)c(F)c3)nc21` (as salt: HCl) [compound No. 6, 2-amino-1-ethyl-7-(3-fluoro-4-{[(1-methyl-1H-imidazol-4-yl)sulfonyl]amino}phenyl)-N-methyl-4-oxo-1,4-dihydro-1,8-naphthyridine-3-carboxamide] was over 300 °C.
